From the supplement of paper PMC11451515

Key:
Assay in all cases: AUC of viability dose-response curve (% viability x log10 dose units); higher = less sensitive
Conditions in all cases: 48 h
[1] = tested on: P12-Ichikawa
How it was run: (§1)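 Viability of medium-adapted leukemia cells was measured by CellTiter-Glo One luminescence after 48 h at 37°C with library compounds in DMSO. Doses were 11 threefold steps from 47 μM to 0.79 nM, in 1536-well plates at 500 or 1000 cells/well. Signals were normalised per plate to DMSO and cell-free wells and fitted with a four-parameter log-logistic model on log10 dose. Area under the curve was integrated by trapezoidal rule, with curves exceeding full viability scaled and failed quality-control curves removed.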

[2] = tested on: SEM cells
How it was run: as §1

[3] = tested on: NOMO1
How it was run: as §1

[4] = RPMI 5 mM glucose + 10% dialyzed FBS

Structure (SMILES)	AUC of viability dose-response curve ([1]; HPLM + 10% dialyzed FBS)	AUC of viability dose-response curve ([1]; RPMI 5 mM glucose + 10% FBS)	AUC of viability dose-response curve [1, 4]	AUC of viability dose-response curve ([2]; HPLM + 10% dialyzed FBS)	AUC of viability dose-response curve ([2]; RPMI 5 mM glucose + 10% FBS)	AUC of viability dose-response curve [2, 4]	AUC of viability dose-response curve ([3]; HPLM + 10% dialyzed FBS)	AUC of viability dose-response curve ([3]; RPMI 5 mM glucose + 10% FBS)	AUC of viability dose-response curve [3, 4]
Clc2cccc(Cl)c2\N=C1/NCCN1	446	448	452	414	407	429	455	474	468
CC[C@H]1OC(=O)[C@H](C)[C@@H](O[C@H]2C[C@@](C)(OC)[C@@H](O)[C@H](C)O2)[C@H](C)[C@@H](O[C@@H]2O[C@H](C)C[C@H](N(C)C)[C@H]2O)[C@](C)(OC)C[C@@H](C)C(=O)[C@H](C)[C@@H](O)[C@]1(C)O	435	443	437	452	461	452	405	440	409
CCC(CCCC)COC(=O)C(\C#N)=C(\c1ccccc1)c2ccccc2 (stereo unspecified)	463	469	460	438	425	449	465	439	431
OC1=CC=C(C=C1)C/2=C/C3=C(OC2)C=C(O)C=C3	354	356	349	355	358	362	368	411	418
CN(C)c1nc(Cc2ccc(NC(=O)c3ccc(C(F)(F)F)cc3)cc2)nc(N(C)C)c1CC(=O)O	471	465	461	473	445	470	452	432	451
O=C(/C=C/c1ccc(/C=C/C(=O)Nc2ccc(C3=NCCN3)cc2)cc1)Nc1ccc(C2=NCCN2)cc1	467	467	473	460	448	459	456	439	464
OC[C@H]1O[C@H](C[C@@H]1O)N2/C=C(C(=O)NC2=O)/C(F)(F)F	317	375	371	317	407	350	356	449	391
O=C(O)c1cc(O)c2c(c1)C(=O)c1cccc(O)c1C2=O	455	464	443	451	460	464	464	445	466
COC1=CC=C(C=C1)/C2=C(O)/C(=O)C3=C(O)C=C(O)C(=C3O2)CC=C(C)C	467	473	468	457	434	467	464	454	464
CCc1ccc(OCc2ccccc2C(=O)Nc2ccc3nc(C)cc(N)c3c2)cc1	409	423	426	377	416	417	368	409	407
CC(C)(N)c1ccc(-c2nc3ccccc3nc2-c2ccccc2)cc1	168	224	219	196	145	181	177	220	241
COc1ccc(F)c(F)c1C(=O)c1cnc(NC2CCN([S+](C)(=O)[O-])CC2)nc1N	401	358	360	351	344	381	367	380	380
O=C1NC(=O)/C(=C/c2ccc3nccnc3c2)S1	464	443	453	441	441	428	457	444	439
Oc1cc(-c2nc(-c3ccccc3)[nH]c2-c2ccncc2)ccc1Cl	438	424	419	464	461	467	394	451	420
